Source: PubChem BioAssay (NCI)
Several values for one entry are separate records, joined by “and”; a condition that tells them apart may be missing. Equal values may be shown once.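 A five-concentration, 48-hour dose response in 96-well plates underlies each endpoint, interpolated linearly between surrounding concentrations. GI50 = concentration required for 50% inhibition of growth. TGI is the concentration that stops growth completely.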

Experiments:
Assay in all cases: growth of human tumour cells (NCI), 48 h
COLO 205 colon = test system: COLO 205 colon
DU-145 prostate = test system: DU-145 prostate
HOP-92 NSCLC = test system: HOP-92 NSCLC
HS 578T breast = test system: HS 578T breast
MDA-MB-231 breast = test system: MDA-MB-231 breast
OVCAR-5 ovarian = test system: OVCAR-5 ovarian
PC-3 prostate = test system: PC-3 prostate
SK-MEL-2 melanoma = test system: SK-MEL-2 melanoma
SK-MEL-28 melanoma = test system: SK-MEL-28 melanoma
SW-620 colon = test system: SW-620 colon

SMILES	TGI (COLO 205 colon)	TGI (DU-145 prostate)	TGI (HOP-92 NSCLC)	TGI (HS 578T breast)	TGI (MDA-MB-231 breast)	TGI (OVCAR-5 ovarian)	TGI (PC-3 prostate)	TGI (SK-MEL-2 melanoma)	TGI (SK-MEL-28 melanoma)	TGI (SW-620 colon)	GI50 (COLO 205 colon)	GI50 (DU-145 prostate)	GI50 (HOP-92 NSCLC)	GI50 (HS 578T breast)	GI50 (MDA-MB-231 breast)	GI50 (OVCAR-5 ovarian)	GI50 (PC-3 prostate)	GI50 (SK-MEL-2 melanoma)	GI50 (SK-MEL-28 melanoma)	GI50 (SW-620 colon)
O=C(O)c1ccc(SSc2ccc(C(=O)O)cn2)nc1	> 100 µM	> 100 µM	> 100 µM	> 100 µM	> 100 µM	> 100 µM	> 100 µM	> 100 µM	> 100 µM	> 100 µM	–	–	–	–	–	–	–	–	–	–
COc1cc(CNc2oc(-c3ccccc3)c(-c3ccccc3)c2C#N)cc(CN2CCN(C)CC2)c1O	4.05 µM	4.03 µM	10.2 µM	6.61 µM	3.93 µM	3.55 µM	4.09 µM	4.56 µM	3.24 µM	3.33 µM	1980 nM	1990 nM	2340 nM	2.26 µM	2010 nM	1730 nM	1.87 µM	2170 nM	1.78 µM	1720 nM
CCC1=C(CC2NCCc3ccccc32)CC2c3cc(OC)c(OC)cc3CCN2C1 (configuration not stated)	4.13 µM and 0.547 µM	12.7 µM and 2.59 µM	9.48 µM and 16.6 µM	12.8 µM and 3.73 µM	14.4 µM and 1.75 µM	–	–	16.6 µM and 2.64 µM	14.4 µM and 9.26 µM	13.4 µM and 6.81 µM	1810 nM and 199 nM	3240 nM	1230 nM	3.07 µM	3400 nM	6150 nM	3.48 µM	4640 nM	4.35 µM	3620 nM
CC/C(=C/c1ccc(OC)cc1OC)[N+](=O)[O-]	4.24 µM	13.8 µM	14.3 µM	63.4 µM	8.96 µM	22.2 µM	13.1 µM	8.73 µM	6.51 µM	4.93 µM	2040 nM	3610 nM	4270 nM	7.76 µM	3080 nM	7590 nM	3.84 µM	2640 nM	2.51 µM	2280 nM
CCN(Cc1c(F)cccc1Cl)c1ccc(CO)c(Cl)c1	6.13 µM	24.9 µM	0.933 µM	47 µM	27.1 µM	0.106 µM	25.1 µM	19.9 µM	27.4 µM	20 µM	694 nM	11800 nM	116 nM	18.2 µM	13300 nM	–	12 µM	785 nM	13.1 µM	175 nM
Nc1cccc2c1C(=O)c1cccc(NC(=O)c3ccccc3)c1C2=O	6.74 µM	> 22.6 µM	6.72 µM	> 53.1 µM	> 100 µM	> 100 µM	> 100 µM	7.26 µM	21 µM	> 100 µM	354 nM	561 nM	340 nM	0.412 µM	1060 nM	1920 nM	0.374 µM	250 nM	1.11 µM	267 nM
CN1CCN(CCCOc2cc(O)c3c(=O)cc(-c4ccccc4)oc3c2)CC1	31.6 µM	73.7 µM	42.9 µM	52.9 µM	31.7 µM	43.6 µM	> 100 µM	> 100 µM	30.6 µM	42.4 µM	15500 nM	25300 nM	14500 nM	23 µM	16300 nM	20300 nM	31.4 µM	35300 nM	16.1 µM	19500 nM
COc1cc(C(=O)c2cocc2C(=O)c2ccc3c(c2)OCO3)cc(OC)c1OC	26.5 µM	21.2 µM	35.4 µM	5.27 µM	48.5 µM	> 66.3 µM	> 35.9 µM	> 41.7 µM	> 49.5 µM	> 57.8 µM	–	–	–	–	–	–	–	–	–	–
O=c1[nH]c(=O)n(C2CC(O)C(CO)O2)cc1C(F)(F)F (configuration not stated)	> 100 µM	> 100 µM	> 100 µM	> 100 µM	> 100 µM	> 100 µM	> 100 µM	> 100 µM	> 100 µM	> 100 µM	25000 nM	2850 nM	> 100000 nM	> 100 µM	> 100000 nM	> 100000 nM	> 100 µM	> 100000 nM	> 62.1 µM	9780 nM
CC(SCc1ccccc1)C(=O)O (configuration not stated)	> 100 µM	> 100 µM	> 100 µM	> 100 µM	> 100 µM	> 100 µM	> 100 µM	> 100 µM	> 100 µM	> 100 µM	–	–	–	–	–	–	–	–	–	–
C[N+](C)=c1ccc2nc3c(cc(NCCCNc4cc5oc6cc(=[N+](C)C)ccc-6nc5c5ccccc45)c4ccccc43)oc-2c1	2.45 µM	2.91 µM	40.1 µM	45.6 µM	4.83 µM	10.9 µM	5.64 µM	45.7 µM	14.7 µM	4.02 µM	1020 nM	1530 nM	14700 nM	7.22 µM	1330 nM	2850 nM	1.2 µM	15000 nM	3.77 µM	1770 nM
CNC(=O)c1ccccc1Nc1nc(Nc2ccc3c(c2OC)CCC[C@H](N2CCN(CCO)CC2)C3)ncc1Cl	2.2 µM and 1.6 µM	14.8 µM and > 10 µM	1.64 µM and 0.863 µM	16.2 µM and > 10 µM	3.26 µM and 7.04 µM	15.5 µM and > 10 µM	15.5 µM and > 10 µM	5.9 µM and 2.7 µM	3.11 µM and 4.46 µM	11.3 µM and > 10 µM	335 nM and 295 nM	1170 nM and 888 nM	154 nM and 148 nM	2.13 µM and 2.4 µM	1340 nM and 1620 nM	656 nM and 732 nM	3.01 µM and 2.06 µM	1560 nM and 613 nM	1.39 µM and 1.73 µM	863 nM and 669 nM
CCn1c(-c2nonc2N)nc2c(N3CCCC3)nccc21	> 25 µM	> 25 µM	22.9 µM	> 25 µM	> 25 µM	> 25 µM	> 25 µM	> 25 µM	> 25 µM	> 25 µM	11000 nM	14000 nM	3880 nM	> 19.4 µM	> 18800 nM	12500 nM	14.4 µM	> 25000 nM	> 25 µM	8070 nM
